From US20090170867A1, “TRPV1 ANTAGONISTS INCLUDING SULFONAMIDE SUBSTITUENT AND USES THEREOF” (Shionogi & Co., Ltd., priority 2007, published 2009)

Assays:
human TRPV1 [1] = target: T1, human TRPV1 (Homo sapiens, UniProt Q8NER1); assay: pH-based assay, Protocol 2 (TRPV1/CHO cells, Fura-2 AM, FDSS-3000, pH 5.0-5.1); assay type: cell-based; details: H2SO4 agonist, mean ± SEM, number of trials in parentheses, read-out: TRPV1 IC50 Potency, Human pH CHO (hpH-CHO)
T1 construct: using primers designed surrounding the complete hTRPV1 open reading frame; expressed in transfected cells; host or cells: CHO-K1 cells stably transfected with pcDNA3.1(-)-hVR1 plasmid
From the text: For Protocol 2, a Chinese Hamster Ovary cell line (CHO) that has been engineered to constitutively express human recombinant TRPV1 was used (TRPV1/CHO cells). The TRPV1/CHO cell line was generated as described below.
The resulting PCR products were purified from agarose gels using Gel Band Purification Kit (GE Healthcare Bioscience) and were subcloned into pCR-Blunt vector (Invitrogen). The cloned cDNA was fully sequenced using a fluorescent dye-terminator reagent (BigDye Terminator ver3.1 Cycle Sequencing Kit, Applied Biosystems) and ABI Prism 3100 genetic analyzer (Applied Biosystems). The pCR-Blunt vector containing the hTRPV1 cDNA was subjected to restriction digestion with EcoRI. The restriction fragment was subcloned into expression vector pcDNA3.1 (−) (Invitrogen) and named pcDNA3.1 (−)-hVR1 plasmid. The sequence of the cDNA encoding TRPV1 is available at GenBank accession number AJ277028.
CHO-K1 cells were maintained in growth medium consisting of α-MEM, 10% FBS (Hyclone), and 100 IU/mL of penicillin-100 μg/mL of streptomycin mixed solution (Nacalai Tesque, Japan) at 37° C. in an environment of humidified 95% air and 5% CO2. The cells were transfected with the pcDNA3.1 (−)-hVR1 plasmid using FuGENE6 (Roche) according to the manufacturer's protocol. 24 hr after transfection, neomycin-resistant cells were selected using 1 mg/mL G418 (Nacalai Tesque). After 2 weeks, individual colonies were picked, expanded, and screened for the expression of hTRPV1 in the capsaicin-induced Ca^2+ influx assay (see below) with a FLIPR (Molecular Devices). A clone with the largest Ca^2+ response to capsaicin was selected and re-cloned by the same procedure. The cells expressing hTRPV1 were cultured in the growth medium supplemented with 1 mg/mL G418.
TRPV1/CHO cells were seeded in the 96-well clear-bottom black-wall plate (Nunc) at densities of 1-2×10^4 cells/well and grown in 100 μL of culture medium (alpha-MEM supplemented with 10% FBS, 20 mM HEPES, 1 mg/mL geneticin and 1% antibiotic-antimycotic mixed stock solution) for 1-2 days before the experiment.
Different agonist solutions with sulfuric acid concentrations of from 15 mM to 18 mM (see FIG. 1) were prepared by diluting 1M sulfuric acid with measuring buffer. The different sulfuric acid concentrations in the agonist solutions were selected such that a 1:4 dilution would result in a final sulfuric acid concentration of between 3.0 mM to 3.6 mM, respectively, as indicated in FIG. 1.
The cells were stimulated using 3.0 mM (well number B1-6), 3.1 mM (C1-6), 3.2 mM (D1-6), 3.3 mM (E1-6), 3.4 mM (F1-6), 3.5 mM (G1-6), or 3.6 mM (H1-6) H2SO4 or pH 7.2 measuring buffer without H2SO4 (A1-6) (FIG. 2).
(1) Culture medium was removed using an 8-channel-pipette (Rainin, USA) from the 96-well plate and the wells were refilled with 100 μL of loading buffer (20 mM HEPES, 115 mM NaCl, 5.4 mM KCl, 0.8 mM MgCl2, 1.8 mM CaCl2, 13.8 mM D-glucose, 2.5 mM probenecid, pH 7.4) containing 5 μM Fura-2 AM (Dojin, Japan).
(2) The 96-well plate was incubated at 37° C. for 45 min.
(3) The loading buffer was removed from each well. The cells were subsequently washed twice with 150 μL of measuring buffer (20 mM HEPES, 115 mM NaCl, 5.4 mM KCl, 0.8 mM MgCl2, 5.0 mM CaCl2, 13.8 mM D-glucose, 0.1% BSA, pH 7.4) (no probenecid). The wells were then refilled with 80 μL of measuring buffer.
(4) After an incubation at 4° C. for 15 min, the 96-well plate was transferred to FDSS-3000 (Hamamatsu Photonics, Japan).
(5) The Fura-2 fluorescent intensity was monitored at a wavelength of 340 nm and at 380 nm, respectively, at a rate of 0.5 Hz for a total of 240 seconds.

human TRPV1 [2] = target: T1, human TRPV1; assay: Capsaicin-based assay, Protocol 2 (TRPV1/CHO cells, Fluo-4, FLIPR); assay type: cell-based; details: capsaicin 100 nM final, mean ± SEM, number of trials in parentheses, read-out: TRPV1 IC50 Potency, Human Capsaicin CHO (hCAP-CHO)
From the text: The TRPV1/CHO cell line was generated as described below. […] The resulting PCR products were purified from agarose gels using Gel Band Purification Kit (GE Healthcare Bioscience) and were subcloned into pCR-Blunt vector (Invitrogen). The cloned cDNA was fully sequenced using a fluorescent dye-terminator reagent (BigDye Terminator ver3.1 Cycle Sequencing Kit, Applied Biosystems) and ABI Prism 3100 genetic analyzer (Applied Biosystems). The pCR-Blunt vector containing the hTRPV1 cDNA was subjected to restriction digestion with EcoRI. The restriction fragment was subcloned into expression vector pcDNA3.1 (-) (Invitrogen) and named pcDNA3.1 (-)-hVR1 plasmid. The sequence of the cDNA encoding TRPV1 is available at GenBank accession number AJ277028. […] The cells were transfected with the pcDNA3.1 (-)-hVR1 plasmid using FuGENE6 (Roche) according to the manufacturer's protocol. 24 hr after transfection, neomycin-resistant cells were selected using 1 mg/mL G418 (Nacalai Tesque). […] The cells expressing hTRPV1 were cultured in the growth medium supplemented with 1 mg/mL G418. […] Subsequently, the cells were loaded by incubation in 0.1 mL of wash buffer containing Fluo-4 at 3 μM final concentration. After 1 hour, the cells were washed twice with 0.2 mL wash buffer and resuspended in 0.1 mL wash buffer. The plates were then transferred to a Fluorescence Imaging Plate Reader (Molecular Devices). Fluorescence intensity was monitored for 15 seconds to establish a baseline. […] The final concentration of the compound was adjusted to range from 100 μM to 1.5625 μM. […] Data were collected over the entire time course and analyzed using Excel and the curve-fitting formula GraphPad Prism.

T1 sequence (Q8NER1 whole entry): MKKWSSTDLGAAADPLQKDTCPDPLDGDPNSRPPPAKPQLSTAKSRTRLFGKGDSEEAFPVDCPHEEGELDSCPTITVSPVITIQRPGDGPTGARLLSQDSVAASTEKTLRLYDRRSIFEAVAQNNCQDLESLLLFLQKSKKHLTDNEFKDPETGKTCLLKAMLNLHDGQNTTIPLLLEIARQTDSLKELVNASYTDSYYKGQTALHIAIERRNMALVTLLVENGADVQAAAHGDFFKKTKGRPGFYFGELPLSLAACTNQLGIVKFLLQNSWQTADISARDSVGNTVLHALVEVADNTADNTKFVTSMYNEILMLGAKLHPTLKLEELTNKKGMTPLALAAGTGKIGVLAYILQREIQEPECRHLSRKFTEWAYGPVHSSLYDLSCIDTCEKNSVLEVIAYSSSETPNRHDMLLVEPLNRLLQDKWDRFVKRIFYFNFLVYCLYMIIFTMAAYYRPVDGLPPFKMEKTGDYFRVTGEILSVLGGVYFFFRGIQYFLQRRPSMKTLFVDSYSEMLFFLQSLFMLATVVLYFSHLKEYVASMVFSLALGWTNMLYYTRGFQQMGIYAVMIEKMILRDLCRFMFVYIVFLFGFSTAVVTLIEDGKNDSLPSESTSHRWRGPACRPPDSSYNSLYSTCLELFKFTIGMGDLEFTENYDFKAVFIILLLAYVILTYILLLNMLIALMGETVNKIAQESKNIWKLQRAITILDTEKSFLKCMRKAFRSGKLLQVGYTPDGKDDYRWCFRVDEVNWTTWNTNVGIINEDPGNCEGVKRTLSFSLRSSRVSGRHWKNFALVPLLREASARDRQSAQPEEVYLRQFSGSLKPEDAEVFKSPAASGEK

SMILES	IC50 (human TRPV1 [1])	IC50 (human TRPV1 [2])
CN1CCCc2ccc(NC(=O)N3CCN(c4ncc([C@H](O)CO)cc4Cl)CC3)cc21 [Compound H5]	516 ± 99.2 nM	520 ± 88.6 nM
O=C(Nc1ccc(C(F)(F)F)c(Cl)c1)N1CC=C(c2ncc([C@H](O)CO)cc2Cl)CC1 [Compound D2, (S)-3-Chloro-5-(1,2-dihydroxy-ethyl)-3′,6′-dihydro-2′H-[2,4′]bipyridinyl-1′-carboxylic acid (3-chloro-4-trifluoromethyl-phenyl)amide]	10.8 ± 0.9 nM	85.3 ± 20.7 nM
O=C(Nc1ccc(C(F)(F)F)cc1)N1CCN(c2ncc([C@H](O)CO)cc2Cl)CC1 [Compound M6, (S)-4-(3-chloro-5-(1,2-dihydroxyethyl)pyridin-2-yl)-N-(4-(trifluoromethyl)phenyl)piperazine-1-carboxamide]	3.5 ± 1 nM	7 ± 1 nM
O=C(Nc1ccc(Cl)c(C(F)(F)F)c1)N1CCN(c2ncc([C@H](O)CO)cc2Cl)CC1 [Compound W6, (S)—N-(4-chloro-3-(trifluoromethyl)phenyl)-4-(3-chloro-5-(1,2-dihydroxyethyl)pyridin-2-yl)piperazine-1-carboxamide]	14.9 ± 2.2 nM	32.9 ± 11.8 nM
O=C(Nc1nc2ccc(F)cc2s1)N1CCC(F)(c2ncc([C@H](O)CO)cc2Cl)CC1 [Compound L1, (S)-4-(3-chloro-5-(1,2-dihydroxyethyl)pyridin-2-yl)-4-fluoro-N-(6-fluorobenzo[d]thiazol-2-yl)piperidine-1-carboxamide]	27.5 ± 3.4 nM	35.3 ± 12 nM
O=C(Nc1ccc(C(F)(F)F)c(F)c1)N1CCC(F)(c2ncc([C@@H](O)CO)cc2F)CC1 [Compound A6]	9 ± 0.8 nM	49.8 ± 12.1 nM
CC(C)(O)c1cnc(C2=CCN(C(=O)Nc3ccc(C(F)(F)F)c(F)c3)CC2)c(Cl)c1 [Compound E3]	141 ± 23.1 nM	671 ± 133 nM
O=C(Nc1ccc(S(=O)(=O)C(F)(F)F)cc1)N1CCC(F)(c2ncc([C@@H](O)CO)cc2Cl)CC1 [Compound B4]	5.8 ± 1.3 nM	57.2 ± 11.6 nM
O=C(Nc1ccc(C(F)(F)F)cn1)N1CCC(F)(c2ncccc2Cl)CC1 [Compound 204]	154 nM	167 nM
CC(C)(C)c1ccc(NC(=O)N2CC=C(c3ncc([C@H](O)CO)cc3F)CC2)cc1 [Compound D1]	0.9 nM	16.5 ± 4.1 nM
O=C(Nc1ccc(C(F)(F)F)c(F)c1)N1CC=C(c2ncc([C@@H](O)CO)cc2Cl)CC1 [Compound W5]	71.2 ± 10.5 nM	423 ± 123 nM
CN(C)c1ccc(NC(=O)N2CC=C(c3ncc(CO)cc3Cl)CC2)cc1C(F)(F)F [Compound X1]	18.8 ± 1.6 nM	74.4 ± 11.5 nM
O=C(Nc1ccc(OC(F)(F)F)c(Cl)c1)N1CCC(F)(c2ncc([C@H](O)CO)cc2Cl)CC1 [Compound M1]	5.7 ± 0.3 nM	37.5 ± 9 nM
CC(O)c1cnc(C2=CCN(C(=O)Nc3ccc(C(F)(F)F)cn3)CC2)c(Cl)c1 (centres unmarked) [Compound B6]	362 ± 69.1 nM	922 ± 205 nM
CC(C)(O)c1cnc(C2=CCN(C(=O)Nc3ccc(C(F)(F)F)cc3)CC2)c(Cl)c1 [Compound X2]	81.1 ± 10.5 nM	248 ± 25.1 nM
CC(C)c1cc(NC(=O)N2CC=C(c3ncc([C@H](O)CO)cc3Cl)CC2)ccc1OC(F)(F)F [Compound B2]	40.5 nM	77.6 ± 12 nM
CC(C)(O)c1cnc(C2=CCN(C(=O)Nc3nc4ccc(Cl)cc4s3)CC2)c(Cl)c1 [Compound B3]	106 ± 11.4 nM	537 ± 62 nM
O=C(Nc1ccc(C(F)(F)F)cn1)N1CC=C(c2ncc([C@@H](O)CO)cc2Cl)CC1 [Compound N3, (R)-4-(3-chloro-5-(1,2-dihydroxyethyl)pyridin-2-yl)-N-(5-(trifluoromethyl)pyridin-2-yl)-5,6-dihydropyridine-1(2H)-carboxamide]	223 ± 14 nM	161 ± 41.7 nM
O=C(Nc1nc2ccc(F)cc2s1)N1CCN(c2ncc([C@H](O)CO)cc2Cl)CC1 [Compound V6, (S)-4-(3-chloro-5-(1,2-dihydroxyethyl)pyridin-2-yl)-N-(6-fluorobenzo[d]thiazol-2-yl)piperazine-1-carboxamide]	6.2 nM	16 ± 1.6 nM
